# ChEMBL document CHEMBL4004877, “Synthesis and biological evaluation of chalcone, dihydrochalcone, and 1,3-diarylpropane analogs as anti-inflammatory agents” (Bioorg Med Chem Lett, 2017)
# Test system: RAW264.7
# Experiment: Antiinflammatory activity in mouse RAW264.7 cells assessed as inhibition of LPS induced iNOS-dependent nitric oxide production at 2.5 ug/ml after 24 hrs by Griess assay relative to control
# Type: functional
# Settings: RAW264.7, 24 h
row,SMILES,inhibition at 2.5 µg/mL
1,COc1ccc(C(=O)/C=C/c2cccc(OC)c2OC)c(O)c1,54.7%
2,COc1cccc(CCC(=O)c2cccc(O)c2)c1OC,14.1%
3,COc1ccc(C(=O)CCc2ccc3c(c2)OCO3)c(O)c1,10.6%
4,COc1ccc(OC)c(CCCc2cccc(O)c2)c1,19.9%
5,COc1ccc(C(=O)CCc2ccc(OC)cc2OC)c(O)c1,3.4%
6,COc1ccc(CCC(=O)c2ccc(O)c(OC)c2)cc1,12.2%
7,COc1ccc(CCC(=O)c2ccc(OC)cc2O)cc1,10.5%
8,COc1cccc(/C=C/C(=O)c2cccc(O)c2)c1OC,3%
9,COc1ccc(C(=O)/C=C/c2ccc(OC)c(OC)c2OC)c(O)c1,9.7%
10,COc1cc(CCCc2ccc3c(c2)OCO3)ccc1O,46.8%
11,COc1cc(CCC(=O)c2cccc(O)c2)ccc1O,19.8%
12,O=C(CCc1ccc2c(c1)OCO2)c1ccc(O)cc1,19.8%
13,COc1ccc(CCCc2ccc(O)c(OC)c2)cc1,42.9%

# Test system: RAW264.7
# Experiment: Antiinflammatory activity in mouse RAW264.7 cells assessed as inhibition of LPS induced iNOS-dependent nitric oxide production after 24 hrs by Griess assay
# Type: functional, cell-based
# Settings: RAW264.7, 24 h
row,SMILES,IC50
1,COc1ccc(C(=O)/C=C/c2cccc(OC)c2OC)c(O)c1,2.35 µg/mL
2,COc1cccc(CCC(=O)c2cccc(O)c2)c1OC,> 10 µg/mL
3,COc1ccc(C(=O)CCc2ccc3c(c2)OCO3)c(O)c1,> 10 µg/mL
4,COc1ccc(OC)c(CCCc2cccc(O)c2)c1,> 10 µg/mL
5,COc1ccc(C(=O)CCc2ccc(OC)cc2OC)c(O)c1,> 10 µg/mL
6,COc1ccc(CCC(=O)c2ccc(O)c(OC)c2)cc1,9.81 µg/mL
7,COc1ccc(CCC(=O)c2ccc(OC)cc2O)cc1,> 10 µg/mL
8,COc1cccc(/C=C/C(=O)c2cccc(O)c2)c1OC,4.83 µg/mL
9,COc1ccc(C(=O)/C=C/c2ccc(OC)c(OC)c2OC)c(O)c1,> 10 µg/mL
10,COc1cc(CCCc2ccc3c(c2)OCO3)ccc1O,3.64 µg/mL
11,COc1cc(CCC(=O)c2cccc(O)c2)ccc1O,9.78 µg/mL
12,O=C(CCc1ccc2c(c1)OCO2)c1ccc(O)cc1,8.72 µg/mL
13,COc1ccc(CCCc2ccc(O)c(OC)c2)cc1,5.08 µg/mL

# Test system: not listed separately
# Experiment: Cytotoxicity against LPS-stimulated mouse RAW264.7 cells assessed as cell viability at 1.25 ug/ml after 24 hrs by MTT assay relative to control
# Type: cell-based
# Settings: LPS-stimulated RAW264.7 cells, read-out: Activity
row,SMILES,"viability at 24 h, 1.25 ug/ml"
1,COc1ccc(C(=O)/C=C/c2cccc(OC)c2OC)c(O)c1,94.2%
2,COc1cccc(CCC(=O)c2cccc(O)c2)c1OC,96.4%
3,COc1ccc(C(=O)CCc2ccc3c(c2)OCO3)c(O)c1,99.8%
4,COc1ccc(OC)c(CCCc2cccc(O)c2)c1,101%
5,COc1ccc(C(=O)CCc2ccc(OC)cc2OC)c(O)c1,97.8%
6,COc1ccc(CCC(=O)c2ccc(O)c(OC)c2)cc1,90%
7,COc1ccc(CCC(=O)c2ccc(OC)cc2O)cc1,95.1%
8,COc1cccc(/C=C/C(=O)c2cccc(O)c2)c1OC,99.6%
9,COc1ccc(C(=O)/C=C/c2ccc(OC)c(OC)c2OC)c(O)c1,98.5%
10,COc1cc(CCCc2ccc3c(c2)OCO3)ccc1O,98.5%
11,COc1cc(CCC(=O)c2cccc(O)c2)ccc1O,100%
12,O=C(CCc1ccc2c(c1)OCO2)c1ccc(O)cc1,95.1%
13,COc1ccc(CCCc2ccc(O)c(OC)c2)cc1,99.2%

# Test system: RAW264.7
# Experiment: Antiinflammatory activity in mouse RAW264.7 cells assessed as inhibition of LPS induced iNOS-dependent nitric oxide production at 10 ug/ml after 24 hrs by Griess assay relative to control
# Type: functional
# Settings: RAW264.7, 24 h
row,SMILES,inhibition at 10 µg/mL
1,COc1ccc(C(=O)/C=C/c2cccc(OC)c2OC)c(O)c1,59.7%
2,COc1cccc(CCC(=O)c2cccc(O)c2)c1OC,47.5%
3,COc1ccc(C(=O)CCc2ccc3c(c2)OCO3)c(O)c1,25.9%
4,COc1ccc(OC)c(CCCc2cccc(O)c2)c1,38.9%
5,COc1ccc(C(=O)CCc2ccc(OC)cc2OC)c(O)c1,21.6%
6,COc1ccc(CCC(=O)c2ccc(O)c(OC)c2)cc1,50.7%
7,COc1ccc(CCC(=O)c2ccc(OC)cc2O)cc1,25.9%
8,COc1cccc(/C=C/C(=O)c2cccc(O)c2)c1OC,55.1%
9,COc1ccc(C(=O)/C=C/c2ccc(OC)c(OC)c2OC)c(O)c1,0.1%
10,COc1cc(CCCc2ccc3c(c2)OCO3)ccc1O,78.3%
11,COc1cc(CCC(=O)c2cccc(O)c2)ccc1O,50.9%
12,O=C(CCc1ccc2c(c1)OCO2)c1ccc(O)cc1,56.2%
13,COc1ccc(CCCc2ccc(O)c(OC)c2)cc1,89.8%

# Test system: RAW264.7
# Experiment: Antiinflammatory activity in mouse RAW264.7 cells assessed as inhibition of LPS induced iNOS-dependent nitric oxide production at 1.25 ug/ml after 24 hrs by Griess assay relative to control
# Type: functional
# Settings: RAW264.7, 24 h
row,SMILES,inhibition at 1.25 µg/mL
1,COc1ccc(C(=O)/C=C/c2cccc(OC)c2OC)c(O)c1,1.3%
2,COc1cccc(CCC(=O)c2cccc(O)c2)c1OC,7.5%
3,COc1ccc(C(=O)CCc2ccc3c(c2)OCO3)c(O)c1,5.1%
4,COc1ccc(OC)c(CCCc2cccc(O)c2)c1,1.5%
5,COc1ccc(C(=O)CCc2ccc(OC)cc2OC)c(O)c1,3%
6,COc1ccc(CCC(=O)c2ccc(O)c(OC)c2)cc1,2.9%
7,COc1ccc(CCC(=O)c2ccc(OC)cc2O)cc1,7.8%
8,COc1cccc(/C=C/C(=O)c2cccc(O)c2)c1OC,1.8%
9,COc1ccc(C(=O)/C=C/c2ccc(OC)c(OC)c2OC)c(O)c1,9.1%
10,COc1cc(CCCc2ccc3c(c2)OCO3)ccc1O,42.4%
11,COc1cc(CCC(=O)c2cccc(O)c2)ccc1O,5.6%
12,O=C(CCc1ccc2c(c1)OCO2)c1ccc(O)cc1,2%
13,COc1ccc(CCCc2ccc(O)c(OC)c2)cc1,35.9%

# Test system: not listed separately
# Experiment: Cytotoxicity against LPS-stimulated mouse RAW264.7 cells assessed as cell viability at 2.5 ug/ml after 24 hrs by MTT assay relative to control
# Type: cell-based
# Settings: LPS-stimulated RAW264.7 cells, read-out: Activity
row,SMILES,"viability at 24 h, 2.5 ug/ml"
1,COc1ccc(C(=O)/C=C/c2cccc(OC)c2OC)c(O)c1,72.9%
2,COc1cccc(CCC(=O)c2cccc(O)c2)c1OC,94%
3,COc1ccc(C(=O)CCc2ccc3c(c2)OCO3)c(O)c1,96.8%
4,COc1ccc(OC)c(CCCc2cccc(O)c2)c1,98.2%
5,COc1ccc(C(=O)CCc2ccc(OC)cc2OC)c(O)c1,96.2%
6,COc1ccc(CCC(=O)c2ccc(O)c(OC)c2)cc1,92%
7,COc1ccc(CCC(=O)c2ccc(OC)cc2O)cc1,94.5%
8,COc1cccc(/C=C/C(=O)c2cccc(O)c2)c1OC,70.8%
9,COc1ccc(C(=O)/C=C/c2ccc(OC)c(OC)c2OC)c(O)c1,96.6%
10,COc1cc(CCCc2ccc3c(c2)OCO3)ccc1O,96.2%
11,COc1cc(CCC(=O)c2cccc(O)c2)ccc1O,98.9%
12,O=C(CCc1ccc2c(c1)OCO2)c1ccc(O)cc1,89%
13,COc1ccc(CCCc2ccc(O)c(OC)c2)cc1,97.8%

# Test system: not listed separately
# Experiment: Cytotoxicity against LPS-stimulated mouse RAW264.7 cells assessed as cell viability at 10 ug/ml after 24 hrs by MTT assay relative to control
# Type: cell-based
# Settings: LPS-stimulated RAW264.7 cells, read-out: Activity
row,SMILES,"viability at 24 h, 10 ug/ml"
1,COc1ccc(C(=O)/C=C/c2cccc(OC)c2OC)c(O)c1,60.3%
2,COc1cccc(CCC(=O)c2cccc(O)c2)c1OC,91.4%
3,COc1ccc(C(=O)CCc2ccc3c(c2)OCO3)c(O)c1,94.4%
4,COc1ccc(OC)c(CCCc2cccc(O)c2)c1,92.2%
5,COc1ccc(C(=O)CCc2ccc(OC)cc2OC)c(O)c1,83.4%
6,COc1ccc(CCC(=O)c2ccc(O)c(OC)c2)cc1,86.5%
7,COc1ccc(CCC(=O)c2ccc(OC)cc2O)cc1,88%
8,COc1cccc(/C=C/C(=O)c2cccc(O)c2)c1OC,32.8%
9,COc1ccc(C(=O)/C=C/c2ccc(OC)c(OC)c2OC)c(O)c1,75.3%
10,COc1cc(CCCc2ccc3c(c2)OCO3)ccc1O,58.2%
11,COc1cc(CCC(=O)c2cccc(O)c2)ccc1O,91%
12,O=C(CCc1ccc2c(c1)OCO2)c1ccc(O)cc1,82.9%
13,COc1ccc(CCCc2ccc(O)c(OC)c2)cc1,66.3%

# Test system: RAW264.7
# Experiment: Antiinflammatory activity in mouse RAW264.7 cells assessed as inhibition of LPS induced iNOS-dependent nitric oxide production at 5 ug/ml after 24 hrs by Griess assay relative to control
# Type: functional
# Settings: RAW264.7, 24 h
row,SMILES,inhibition at 5 µg/mL
1,COc1ccc(C(=O)/C=C/c2cccc(OC)c2OC)c(O)c1,55.3%
2,COc1cccc(CCC(=O)c2cccc(O)c2)c1OC,25%
3,COc1ccc(C(=O)CCc2ccc3c(c2)OCO3)c(O)c1,14.1%
4,COc1ccc(OC)c(CCCc2cccc(O)c2)c1,36.8%
5,COc1ccc(C(=O)CCc2ccc(OC)cc2OC)c(O)c1,9%
6,COc1ccc(CCC(=O)c2ccc(O)c(OC)c2)cc1,26.1%
7,COc1ccc(CCC(=O)c2ccc(OC)cc2O)cc1,14.5%
8,COc1cccc(/C=C/C(=O)c2cccc(O)c2)c1OC,52.4%
9,COc1ccc(C(=O)/C=C/c2ccc(OC)c(OC)c2OC)c(O)c1,4.1%
10,COc1cc(CCCc2ccc3c(c2)OCO3)ccc1O,52.7%
11,COc1cc(CCC(=O)c2cccc(O)c2)ccc1O,23.2%
12,O=C(CCc1ccc2c(c1)OCO2)c1ccc(O)cc1,24.8%
13,COc1ccc(CCCc2ccc(O)c(OC)c2)cc1,49%

# Test system: not listed separately
# Experiment: Cytotoxicity against LPS-stimulated mouse RAW264.7 cells assessed as cell viability at 5 ug/ml after 24 hrs by MTT assay relative to control
# Type: cell-based
# Settings: LPS-stimulated RAW264.7 cells, read-out: Activity
row,SMILES,"viability at 24 h, 5 ug/ml"
1,COc1ccc(C(=O)/C=C/c2cccc(OC)c2OC)c(O)c1,69.7%
2,COc1cccc(CCC(=O)c2cccc(O)c2)c1OC,93.4%
3,COc1ccc(C(=O)CCc2ccc3c(c2)OCO3)c(O)c1,96.2%
4,COc1ccc(OC)c(CCCc2cccc(O)c2)c1,93.5%
5,COc1ccc(C(=O)CCc2ccc(OC)cc2OC)c(O)c1,87.4%
6,COc1ccc(CCC(=O)c2ccc(O)c(OC)c2)cc1,89.8%
7,COc1ccc(CCC(=O)c2ccc(OC)cc2O)cc1,92.3%
8,COc1cccc(/C=C/C(=O)c2cccc(O)c2)c1OC,57.8%
9,COc1ccc(C(=O)/C=C/c2ccc(OC)c(OC)c2OC)c(O)c1,72.5%
10,COc1cc(CCCc2ccc3c(c2)OCO3)ccc1O,93.3%
11,COc1cc(CCC(=O)c2cccc(O)c2)ccc1O,96.1%
12,O=C(CCc1ccc2c(c1)OCO2)c1ccc(O)cc1,87.3%
13,COc1ccc(CCCc2ccc(O)c(OC)c2)cc1,96.4%
